# Data published in ChEMBL document CHEMBL5375972, “Discovery of Novel 2,3-Dihydro-1H-indene-5-sulfonamide NLRP3 Inflammasome Inhibitors Targeting Colon as a Potential Therapy for Colitis” (J Med Chem, 2023).
# Active and inactive are the calls of the source. The rule behind the calls is not given here.
# Key:
# [1] = Subacute toxicity in C57BL/6 mouse assessed as kidney histological changes at 100 mg/kg,ip administrated for 14 days; type: organism-based; settings: in vivo, 336 h, time 14 day
# [2] = Subacute toxicity in C57BL/6 mouse assessed as change in heart weight at 100 mg/kg,ip administrated for 14 days; type: organism-based; settings: in vivo, 336 h, time 14 day
# [3] = Drug distribution in Sprague-Dawley rat spleen at 1 mg/kg,iv measured for 0.5 to 2 hrs by HPLC-MS/MS analysis; type: ADME, organism-based; settings: in vivo, time 0.5-2 hrs
# [4] = Cytotoxicity against human HL7702 cells incubated for 48 hrs by resazurin reagent based assay; type: toxicity, cell-based; settings: HL7702 (L02) cells
# Mus musculus [5] = assay: Anti-inflammatory activity in DSS-induced ulcerative colitis C57BL/6 mouse model assessed as decrease in caspase-1 expression in colon at 10 mg/kg,ip administrated for 9 days by immunohistochemistry analysis; type: functional, organism-based; settings: time 9.0 day
# [6] = Drug distribution in Sprague-Dawley rat plasma at 1 mg/kg,iv measured for 0.5 to 2 hrs by HPLC-MS/MS analysis; type: ADME, organism-based; settings: in vivo, time 0.5-2 hrs
# [7] = Acute toxicity in Kunming mouse model assessed as behavioral abnormalities at 2000 mg/kg,IG administration for 7 days; type: organism-based; settings: in vivo, po, 168 h, time 7 day
# Mus musculus [8] = assay: Anti-inflammatory activity in DSS-induced ulcerative colitis C57BL/6 mouse model assessed as reduction in crypt necrosis in colon at 10 mg/kg,ip administrated for 9 days by Hematoxylin-eosin staining based microscopic analysis; type: functional, organism-based; settings: time 9.0 day
# Mus musculus [9] = assay: Anti-inflammatory activity in DSS-induced ulcerative colitis C57BL/6 mouse model assessed as reduction in disease activity index (DAI) score at 10 mg/kg,ip administrated for 9 days; type: functional, organism-based; settings: time 9.0 day
# [10] = Acute toxicity in Kunming mouse model assessed as anorexia at 2000 mg/kg,IG administration for 7 days; type: organism-based; settings: in vivo, po, 168 h, time 7 day
# [11] = Subacute toxicity in C57BL/6 mouse assessed as change in kidney weight at 10 mg/kg,ip administrated for 14 days; type: organism-based; settings: in vivo, 336 h, time 14 day
# [12] = Subacute toxicity in C57BL/6 mouse assessed as change in lung weight at 10 mg/kg,ip administrated for 14 days; type: organism-based; settings: in vivo, 336 h, time 14 day
# [13] = Drug distribution in Sprague-Dawley rat kidney at 1 mg/kg,iv measured for 0.5 to 2 hrs by HPLC-MS/MS analysis; type: ADME, organism-based; settings: in vivo, time 0.5-2 hrs
# [14] = biological target: T1, NACHT, LRR and PYD domains-containing protein 3 (Homo sapiens, UniProt Q96P20); assay: Binding affinity to human NLRP3 assessed as equilibrium dissociation constant by surface plasmon resonance assay
# [15] = Acute toxicity in Kunming mouse model assessed as lethal dose at IG administration for 7 days; settings: in vivo, po, time 7 day
# [16] = Subacute toxicity in C57BL/6 mouse assessed as colon histological changes at 10 mg/kg,ip administrated for 14 days; type: organism-based; settings: in vivo, 336 h, time 14 day
# [17] = biological target: T1, NACHT, LRR and PYD domains-containing protein 3; assay: Inhibition of NLRP3 inflammasome in human U-937 cells assessed as downregulation of LPS/ATP-induced caspase-1 p20 expression at 3 to 30 uM primed with LPS for 4.5 hrs followed by compound addition for 2.5 hrs and stimulated with […] for 13 hrs by Western blotting analysis; type: cell-based; settings: dose 3-30 µM, time 15.5 hrs
# [18] = biological target: T2, Interferon-inducible protein AIM2 (Mus musculus) (UniProt Q91VJ1); assay: Inhibition of AIM2 inflammasome in mouse J774.A1 cells assessed as inhibition of IL-1 beta secretion at 10 uM pretreated with LPS and compound for 1 hr and later stimulated with poly (dA:dT) for 8 hrs by ELISA; type: cell-based; settings: time 9.0 hrs
# T2 sequence (whole entry): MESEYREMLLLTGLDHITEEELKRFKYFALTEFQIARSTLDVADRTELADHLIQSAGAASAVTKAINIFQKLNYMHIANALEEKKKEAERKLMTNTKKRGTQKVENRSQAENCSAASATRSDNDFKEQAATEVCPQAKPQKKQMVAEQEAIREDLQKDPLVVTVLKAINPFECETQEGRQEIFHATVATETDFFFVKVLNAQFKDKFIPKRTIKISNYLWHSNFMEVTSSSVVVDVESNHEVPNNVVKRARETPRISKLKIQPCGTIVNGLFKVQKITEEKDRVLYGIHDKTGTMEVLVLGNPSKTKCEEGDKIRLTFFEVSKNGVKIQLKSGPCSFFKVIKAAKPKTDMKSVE
# Mus musculus [19] = assay: Anti-inflammatory activity in DSS-induced ulcerative colitis C57BL/6 mouse model assessed as decrease in IL-18 expression in colon at 10 mg/kg,ip administrated for 9 days by immunohistochemistry analysis; type: functional, organism-based; settings: time 9.0 day
# [20] = Acute toxicity in Kunming mouse model assessed as change in body weight at 2000 mg/kg,IG administration for 7 days; type: organism-based; settings: in vivo, po, 168 h, time 7 day
# [21] = Drug distribution in Sprague-Dawley rat lung at 1 mg/kg,iv measured for 0.5 to 2 hrs by HPLC-MS/MS analysis; type: ADME, organism-based; settings: in vivo, time 0.5-2 hrs
# [22] = Acute toxicity in Kunming mouse model assessed as anorexia at 1000 mg/kg,IG administration for 7 days; type: organism-based; settings: in vivo, po, 168 h, time 7 day
# [23] = Subacute toxicity in C57BL/6 mouse assessed as spleen histological changes at 10 mg/kg,ip administrated for 14 days; type: organism-based; settings: in vivo, 336 h, time 14 day
# [24] = Clearance in Sprague-Dawley rat at 1 mg/kg,iv measured after 24 hrs by HPLC-MS/MS analysis; type: ADME, organism-based; settings: in vivo
# [25] = biological target: NLR family CARD domain-containing protein 4 (Mus musculus) (UniProt Q3UP24); assay: Inhibition of NLRC4 inflammasome in mouse J774.A1 cells assessed as inhibition of LPS/flagellin-induced IL-1 beta secretion at 10 uM pretreated with LPS and compound for 1 hr followed by flagellin addition measured after 6 hrs by ELISA; type: cell-based; settings: time 7.0 hrs
# [26] = Subacute toxicity in C57BL/6 mouse assessed as change in colon weight at 100 mg/kg,ip administrated for 14 days; type: organism-based; settings: in vivo, 336 h, time 14 day
# Mus musculus [27] = assay: Anti-inflammatory activity in DSS-induced ulcerative colitis C57BL/6 mouse model assessed as decrease in ASC expression in colon at 10 mg/kg,ip administrated for 9 days by immunohistochemistry analysis; type: functional, organism-based; settings: time 9.0 day
# Mus musculus [28] = assay: Anti-inflammatory activity in DSS-induced ulcerative colitis C57BL/6 mouse model assessed as reduction in inflammatory cell infiltration in colon at 10 mg/kg,ip administrated for 9 days by Hematoxylin-eosin staining based microscopic analysis; type: functional, organism-based; settings: time 9.0 day
# [29] = Subacute toxicity in C57BL/6 mouse assessed as change in kidney weight at 100 mg/kg,ip administrated for 14 days; type: organism-based; settings: in vivo, 336 h, time 14 day
# J774.A1 = assay: Inhibition of NF-kappaB pathway in mouse J774.A1 cells assessed as inhibition of LPS-induced IL-6 secretion at 0.1 to 30 uM pretreated for 1hr followed by LPS addition for 6 hrs by ELISA; type: cell-based; settings: dose 0.1-30 µM, time 7.0 hrs
# [30] = Acute toxicity in Kunming mouse model assessed as behavioral abnormalities at 1000 mg/kg,IG administration for 7 days; type: organism-based; settings: in vivo, po, 168 h, time 7 day
# [31] = Drug distribution in Sprague-Dawley rat liver at 1 mg/kg,iv measured for 0.5 to 2 hrs by HPLC-MS/MS analysis; type: ADME, organism-based; settings: in vivo, time 0.5-2 hrs
# Mus musculus [32] = assay: Anti-inflammatory activity in DSS-induced ulcerative colitis C57BL/6 mouse model assessed as decrease in caspase-1 p20 protein expression in colon at 10 mg/kg,ip administrated for 9 days by Western blotting analysis; type: functional, organism-based; settings: time 9.0 day
# T1 sequence (Q96P20 whole entry, the tested form may be a part): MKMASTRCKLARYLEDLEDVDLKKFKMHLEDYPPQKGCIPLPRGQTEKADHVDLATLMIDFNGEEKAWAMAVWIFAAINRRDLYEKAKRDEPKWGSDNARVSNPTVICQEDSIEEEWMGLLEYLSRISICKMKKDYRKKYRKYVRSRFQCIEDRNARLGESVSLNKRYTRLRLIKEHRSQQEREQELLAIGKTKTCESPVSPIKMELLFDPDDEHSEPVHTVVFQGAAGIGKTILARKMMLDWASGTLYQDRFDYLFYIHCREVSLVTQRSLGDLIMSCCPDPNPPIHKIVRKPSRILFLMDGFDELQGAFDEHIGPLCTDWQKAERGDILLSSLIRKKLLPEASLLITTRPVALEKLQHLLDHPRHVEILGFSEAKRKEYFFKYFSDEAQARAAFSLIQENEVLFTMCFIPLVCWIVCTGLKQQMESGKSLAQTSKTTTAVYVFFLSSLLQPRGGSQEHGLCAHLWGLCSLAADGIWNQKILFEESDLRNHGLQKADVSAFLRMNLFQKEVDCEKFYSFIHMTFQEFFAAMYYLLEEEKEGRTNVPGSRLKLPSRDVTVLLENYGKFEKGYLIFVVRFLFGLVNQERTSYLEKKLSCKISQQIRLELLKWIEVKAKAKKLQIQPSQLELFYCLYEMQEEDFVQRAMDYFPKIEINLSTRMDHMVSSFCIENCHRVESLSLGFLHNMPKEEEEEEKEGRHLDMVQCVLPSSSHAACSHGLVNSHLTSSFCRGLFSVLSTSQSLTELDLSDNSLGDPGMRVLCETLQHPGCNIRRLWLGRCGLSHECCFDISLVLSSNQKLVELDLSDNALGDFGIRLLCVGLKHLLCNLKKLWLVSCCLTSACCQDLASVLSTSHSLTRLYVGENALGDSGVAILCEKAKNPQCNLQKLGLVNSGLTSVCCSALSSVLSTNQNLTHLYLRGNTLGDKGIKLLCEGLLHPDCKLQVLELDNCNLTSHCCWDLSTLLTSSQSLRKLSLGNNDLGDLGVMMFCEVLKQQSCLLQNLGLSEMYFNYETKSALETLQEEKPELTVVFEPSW
# Sequence of NLR family CARD domain-containing protein 4 (Mus musculus) (Q3UP24 whole entry, the tested form may be a part): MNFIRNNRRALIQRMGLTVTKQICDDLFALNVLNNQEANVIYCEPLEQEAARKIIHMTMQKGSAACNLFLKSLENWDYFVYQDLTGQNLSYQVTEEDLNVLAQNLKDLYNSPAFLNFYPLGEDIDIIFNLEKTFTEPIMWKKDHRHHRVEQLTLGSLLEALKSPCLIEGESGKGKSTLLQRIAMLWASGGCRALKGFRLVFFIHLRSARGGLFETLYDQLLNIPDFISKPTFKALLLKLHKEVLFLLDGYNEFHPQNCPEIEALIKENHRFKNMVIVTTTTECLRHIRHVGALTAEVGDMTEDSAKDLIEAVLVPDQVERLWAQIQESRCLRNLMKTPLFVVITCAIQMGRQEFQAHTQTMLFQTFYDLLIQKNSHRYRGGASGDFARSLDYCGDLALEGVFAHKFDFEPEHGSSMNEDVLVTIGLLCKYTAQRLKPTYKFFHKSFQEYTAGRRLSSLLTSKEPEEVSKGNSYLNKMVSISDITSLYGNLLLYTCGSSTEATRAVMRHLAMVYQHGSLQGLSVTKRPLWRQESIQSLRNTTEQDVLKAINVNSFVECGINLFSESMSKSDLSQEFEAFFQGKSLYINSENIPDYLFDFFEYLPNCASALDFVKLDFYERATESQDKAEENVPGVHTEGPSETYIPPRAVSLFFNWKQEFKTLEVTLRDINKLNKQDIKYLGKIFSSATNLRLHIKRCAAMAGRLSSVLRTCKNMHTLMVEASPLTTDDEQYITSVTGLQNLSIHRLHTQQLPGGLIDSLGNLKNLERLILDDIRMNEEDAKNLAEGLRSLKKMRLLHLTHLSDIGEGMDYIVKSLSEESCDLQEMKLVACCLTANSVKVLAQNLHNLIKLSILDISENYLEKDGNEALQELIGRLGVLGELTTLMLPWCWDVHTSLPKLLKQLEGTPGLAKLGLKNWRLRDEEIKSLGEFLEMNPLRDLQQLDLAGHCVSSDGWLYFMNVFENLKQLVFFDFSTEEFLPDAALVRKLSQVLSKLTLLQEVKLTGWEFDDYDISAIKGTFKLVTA
smiles,measurement,setting,value
CCCNS(=O)(=O)c1ccc2c(c1)CC(N(Cc1cc(Cl)ccc1OCCOC)C(=O)c1cc3ccccc3o1)C2 (racemic),Activity,[1],Non-Toxic
same,Activity,[2],Non-Toxic
same,Drug uptake,[3],Active
same,CC50 at 48 h,[4],> 1000 µM
same,Activity,Mus musculus [5],Active
same,Cp,[6],2094.04 ng/g
same,Activity,[7],Non-Toxic
same,Activity,Mus musculus [8],Active
same,Activity,Mus musculus [9],Active
same,Activity,[10],Non-Toxic
same,Activity,[11],Non-Toxic
same,Activity,[12],Non-Toxic
same,Drug uptake,[13],Active
same,Kd,[14],0.103 µM
same,LD50 at 168 h,[15],2000 mg/kg
same,Activity,[16],Non-Toxic
same,inhibition,[17],Active
same,inhibition,[18],inactive
same,Activity,Mus musculus [19],Active
same,Activity,[20],Non-Toxic
same,Drug uptake,[21],Active
same,Activity,[22],Non-Toxic
same,Activity,[23],Non-Toxic
same,clearance,[24],78.4 mL/min/kg
same,inhibition,[25],inactive
same,Activity,[26],Non-Toxic
same,Activity,Mus musculus [27],Active
same,Activity,Mus musculus [28],Active
same,Activity,[29],Non-Toxic
same,inhibition,J774.A1,inactive
same,Activity,[30],Non-Toxic
same,Drug uptake,[31],Active
same,Activity,Mus musculus [32],Active
